# Measured values as given in patent US20250027086A1, “COMPOSITIONS AND METHODS FOR TREATMENT OF CANCERS USING MODIFIED siRNA-GEM AGENTS” (Sirnaomics, Inc., priority 2022, published 2025).
# Entries after “also recorded” stand apart in the source; their conditions may differ.
# System: MiaPaCa-2 xenograft tumors
# Assay: Xenograft tumor growth in NU/NU mice after subcutaneous implantation of MiaPaCa tumor cells, intratumoral injections
# Format: in vivo, mouse
# Conditions: vs control; for tumor weight: xenografts harvested Day 25, n=8, FIG. 14(a)
# Protocol: Twenty-four NU/NU nude mice were purchased from Charles River Laboratories (Frederick, MD) and each housed in a single cage with standard bedding, lighting and ad libitum feed.
# The human pancreatic cell carcinoma MiaPaCa-2 cell line was obtained from American Type Culture Collection (ATCC, CRL-1420™) and cultured in DMEM with 10 percent fetal bovine serum and 1 percent pen-strep in a humidified incubator with temperature at 37 degrees C., and 5 percent CO2. Subcultures were made when cell volume reached ˜80-90 percent (roughly 3-5 days). Media was changed every 3 to 4 days. All experiments were performed when the cells reached approximately 80-90 percent confluence.
# MiaPaCa tumor cells (2.5×10^6 cells) in 100 μl of growth media and 100 μl of Matrigel were injected subcutaneously into the left flank of each mouse on Day 0. Body weight measured using a digital scale, and tumor volume measured using a digital caliper, were recorded […]. Tumor volume was measured using external digital calipers with modified ellipsoid formula: ½(length×width^2).
# The mice were assigned to one of three groups (n=8) approximately five to ten days after subcutaneous implantation of MiaPaCa cells, when tumors had reached 100 mm^3 in volume. Twice weekly (Mon. and Thurs.) for three-four weeks, mice in all three groups received intratumoral injections of 80 μl each. Mice in the control group were injected with non-silencing (NS) siRNA with HKP(+H) as a carrier. Mice in one of the treatment groups were injected with PGN7, i.e., GEM siRNA with HKP(+H)shk1 (2.z), (SEQ. ID No. 9-10). Mice in the second treatment group were injected with STD1, i.e., GEM siRNA with HKP(+H) chk1 (2.z) (SEQ. ID No. 3-4). All injections were given under isoflurane anesthesia to minimize discomfort
# Tumor volume (mm^3) and body weights were measured on Days 0, 4, 7, 11, 14, 18, 21 and 25. Mean±SE for each group (PGN7, STD1 and control) were statistically compared using analysis of variance (ANOVA) with the Tukey test. Mice were also observed for excess growth, adverse reactions to treatments and other observable, adverse signs of health. Treatments were blinded to the tracers and data analysts.
# All mice were sacrificed and the implanted xenograft removed on Day 26 after initial treatment (the last treatment given on Day 25). One-third of the xenograft was fixed in […] formalin for histological analysis; one-third was frozen and one-third was preserved in RNAlater stabilization and storage solution.
substance,measurement,setting,value
PGN7: modified siRNA-GEM RNAi agent (SEQ. ID No. 9-10): sense 5′-AAGAAAgAgau[GEM]uGuAu[GEM]AAu-3′; antisense 5′-AuUGAuACAGAuCuCuUuCuU[GEM][GEM]dTdT-3′ (sense AAGAAAGAGATCTGTATCAAT; antisense ATTGATACAGATCTCTTTCTTCCTT; GEM modifications; 2'-modified bases; dTdT overhang; modified_base 1 OTHER; 2'-O-methyl modified nucleotide; modified_base 2 OTHER; modified_base 3 OTHER; modified_base 4 OTHER; modified_base 5 OTHER; modified_base 6 OTHER; modified_base 7 OTHER; 2'-fluoro modified nucleotide; modified_b; 2'-O-me),tumor volume,"intratumoral twice weekly with HKP(+H), ANOVA Tukey, p<0.02, from 14 days, FIG. 14(c)",effectively attenuated the increase; also recorded: significantly reduced tumor volume; also recorded: attenuating the growth of pancreatic tumors
same,body weight,"over 25 days, p>0.05, FIG. 14(b)",did not differ
same,tumor weight,p>0.05,did not differ
same,tumor weight,"p>0.05, listed as PGN 7",did not differ significantly
